Assay results published in PMC2801349 (Bioorganic & medicinal chemistry letters, 2009).

Tests used:
rat mGlu5 = rat mGlu5 (Rattus norvegicus, UniProt P31424); experiment: Calcium mobilization mGlu5 assay; assay type: cell-based; conditions: for fold reduction of mGlu5 potency, secondary amine to ether: 26 relative to 13, 29 relative to 4
mGlu2 = mGlu2 (Homo sapiens, UniProt Q14416); experiment: Selectivity versus additional mGlus; assay type: cell-based
mGlu3 = mGlu3 (Homo sapiens, UniProt Q14832); experiment: Selectivity versus additional mGlus; assay type: cell-based
mGlu4 = mGlu4 (Homo sapiens, UniProt Q14833); experiment: Selectivity versus additional mGlus; assay type: cell-based
mGlu7 = mGlu7 (Homo sapiens, UniProt Q14831); experiment: Selectivity versus additional mGlus; assay type: cell-based
mGlu8 = mGlu8 (Homo sapiens, UniProt O00222); experiment: Selectivity versus additional mGlus; assay type: cell-based
EGFR = conditions: read-out: EGFR autophosphorylation IC50; A431 cells; cited from earlier work

Chain of mGlu4 (Q14833 33-912): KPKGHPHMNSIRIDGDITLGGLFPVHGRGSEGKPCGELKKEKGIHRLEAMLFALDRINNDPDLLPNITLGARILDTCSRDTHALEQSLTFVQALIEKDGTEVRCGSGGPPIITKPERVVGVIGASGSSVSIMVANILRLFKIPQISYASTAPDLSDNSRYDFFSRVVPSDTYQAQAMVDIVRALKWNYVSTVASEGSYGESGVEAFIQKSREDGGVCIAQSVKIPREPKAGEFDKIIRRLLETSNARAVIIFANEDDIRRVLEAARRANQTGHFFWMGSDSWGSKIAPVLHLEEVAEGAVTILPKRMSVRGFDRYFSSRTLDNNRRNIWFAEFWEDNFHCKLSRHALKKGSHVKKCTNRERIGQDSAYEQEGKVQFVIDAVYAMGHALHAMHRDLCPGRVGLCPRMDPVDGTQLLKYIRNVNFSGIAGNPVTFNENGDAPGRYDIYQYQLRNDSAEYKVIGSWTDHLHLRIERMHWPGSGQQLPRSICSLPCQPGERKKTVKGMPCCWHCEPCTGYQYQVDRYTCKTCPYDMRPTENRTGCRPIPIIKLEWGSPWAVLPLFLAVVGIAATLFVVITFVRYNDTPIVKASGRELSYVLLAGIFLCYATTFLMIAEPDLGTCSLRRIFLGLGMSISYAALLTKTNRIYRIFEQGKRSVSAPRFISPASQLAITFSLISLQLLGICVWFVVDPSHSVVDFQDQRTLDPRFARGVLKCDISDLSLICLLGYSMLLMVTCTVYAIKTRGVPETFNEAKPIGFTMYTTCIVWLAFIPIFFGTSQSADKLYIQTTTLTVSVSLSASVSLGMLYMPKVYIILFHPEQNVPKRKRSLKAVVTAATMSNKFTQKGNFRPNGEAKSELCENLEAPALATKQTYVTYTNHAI
Chain of mGlu3 (Q14832 23-879): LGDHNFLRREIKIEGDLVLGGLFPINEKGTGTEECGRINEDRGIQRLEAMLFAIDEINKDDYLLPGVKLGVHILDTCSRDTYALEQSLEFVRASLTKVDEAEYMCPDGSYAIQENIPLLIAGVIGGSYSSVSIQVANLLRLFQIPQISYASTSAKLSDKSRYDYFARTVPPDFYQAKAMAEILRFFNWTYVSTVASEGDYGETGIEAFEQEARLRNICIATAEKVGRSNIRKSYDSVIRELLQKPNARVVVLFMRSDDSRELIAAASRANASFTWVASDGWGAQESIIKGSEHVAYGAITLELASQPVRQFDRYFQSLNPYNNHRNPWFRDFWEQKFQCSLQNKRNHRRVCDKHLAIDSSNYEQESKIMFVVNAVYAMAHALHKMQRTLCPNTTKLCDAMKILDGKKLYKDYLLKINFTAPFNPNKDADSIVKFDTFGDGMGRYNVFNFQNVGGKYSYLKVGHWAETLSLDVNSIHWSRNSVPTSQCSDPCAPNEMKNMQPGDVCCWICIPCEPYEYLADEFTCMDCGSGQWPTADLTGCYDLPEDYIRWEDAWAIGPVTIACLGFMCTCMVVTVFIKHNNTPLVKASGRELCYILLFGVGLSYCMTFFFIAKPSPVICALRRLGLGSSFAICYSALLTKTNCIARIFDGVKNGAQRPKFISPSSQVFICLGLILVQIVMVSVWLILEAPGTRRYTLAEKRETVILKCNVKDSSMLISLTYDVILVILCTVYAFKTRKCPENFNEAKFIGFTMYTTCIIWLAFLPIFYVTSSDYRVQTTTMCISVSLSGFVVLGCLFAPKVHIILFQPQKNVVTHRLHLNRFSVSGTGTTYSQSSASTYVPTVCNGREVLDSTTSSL
Chain of mGlu8 (O00222 34-908): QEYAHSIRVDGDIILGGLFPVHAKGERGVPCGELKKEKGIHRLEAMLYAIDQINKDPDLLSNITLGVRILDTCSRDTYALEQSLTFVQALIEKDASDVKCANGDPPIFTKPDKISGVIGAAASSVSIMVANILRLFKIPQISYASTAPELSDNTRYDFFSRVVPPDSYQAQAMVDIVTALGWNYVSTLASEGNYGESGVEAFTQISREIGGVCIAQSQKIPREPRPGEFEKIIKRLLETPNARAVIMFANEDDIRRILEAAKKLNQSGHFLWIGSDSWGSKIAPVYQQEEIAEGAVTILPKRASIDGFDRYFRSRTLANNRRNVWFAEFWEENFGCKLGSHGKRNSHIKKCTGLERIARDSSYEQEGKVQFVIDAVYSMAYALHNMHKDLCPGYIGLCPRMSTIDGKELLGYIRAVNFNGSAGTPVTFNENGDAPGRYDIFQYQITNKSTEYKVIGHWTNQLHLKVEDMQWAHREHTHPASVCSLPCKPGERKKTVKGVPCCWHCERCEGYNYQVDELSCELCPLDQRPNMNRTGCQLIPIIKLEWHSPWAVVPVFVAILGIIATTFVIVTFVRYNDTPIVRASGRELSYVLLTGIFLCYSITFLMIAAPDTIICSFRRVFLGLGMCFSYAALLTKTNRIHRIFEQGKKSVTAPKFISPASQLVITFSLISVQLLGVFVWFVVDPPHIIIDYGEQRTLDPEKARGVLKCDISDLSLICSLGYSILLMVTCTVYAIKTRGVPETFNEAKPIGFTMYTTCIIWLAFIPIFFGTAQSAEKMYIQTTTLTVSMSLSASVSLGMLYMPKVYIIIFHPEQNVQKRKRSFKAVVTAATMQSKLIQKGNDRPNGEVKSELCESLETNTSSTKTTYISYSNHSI
Chain of mGlu2 (Q14416 19-872): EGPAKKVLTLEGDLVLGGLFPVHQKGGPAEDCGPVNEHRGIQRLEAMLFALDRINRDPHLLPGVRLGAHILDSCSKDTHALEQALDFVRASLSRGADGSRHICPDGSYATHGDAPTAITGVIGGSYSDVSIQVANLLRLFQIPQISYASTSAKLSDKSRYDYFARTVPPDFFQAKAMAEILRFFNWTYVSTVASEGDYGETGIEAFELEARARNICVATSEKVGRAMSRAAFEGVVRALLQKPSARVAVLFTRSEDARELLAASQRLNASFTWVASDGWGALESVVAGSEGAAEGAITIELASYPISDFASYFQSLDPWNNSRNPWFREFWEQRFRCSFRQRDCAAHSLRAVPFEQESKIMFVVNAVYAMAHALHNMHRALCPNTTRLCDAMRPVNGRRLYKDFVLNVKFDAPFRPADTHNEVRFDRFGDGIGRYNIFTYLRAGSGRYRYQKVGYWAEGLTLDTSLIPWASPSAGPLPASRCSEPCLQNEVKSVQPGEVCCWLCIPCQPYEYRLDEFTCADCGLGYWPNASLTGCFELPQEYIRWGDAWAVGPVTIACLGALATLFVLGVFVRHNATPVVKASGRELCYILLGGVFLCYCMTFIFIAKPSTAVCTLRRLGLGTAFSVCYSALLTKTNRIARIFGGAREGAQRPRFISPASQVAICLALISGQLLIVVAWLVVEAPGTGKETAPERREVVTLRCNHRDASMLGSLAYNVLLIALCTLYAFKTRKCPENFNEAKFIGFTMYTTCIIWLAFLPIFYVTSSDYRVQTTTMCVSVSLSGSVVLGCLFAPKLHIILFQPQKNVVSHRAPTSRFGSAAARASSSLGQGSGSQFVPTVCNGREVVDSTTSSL
Chain of rat mGlu5 (P31424 21-1203): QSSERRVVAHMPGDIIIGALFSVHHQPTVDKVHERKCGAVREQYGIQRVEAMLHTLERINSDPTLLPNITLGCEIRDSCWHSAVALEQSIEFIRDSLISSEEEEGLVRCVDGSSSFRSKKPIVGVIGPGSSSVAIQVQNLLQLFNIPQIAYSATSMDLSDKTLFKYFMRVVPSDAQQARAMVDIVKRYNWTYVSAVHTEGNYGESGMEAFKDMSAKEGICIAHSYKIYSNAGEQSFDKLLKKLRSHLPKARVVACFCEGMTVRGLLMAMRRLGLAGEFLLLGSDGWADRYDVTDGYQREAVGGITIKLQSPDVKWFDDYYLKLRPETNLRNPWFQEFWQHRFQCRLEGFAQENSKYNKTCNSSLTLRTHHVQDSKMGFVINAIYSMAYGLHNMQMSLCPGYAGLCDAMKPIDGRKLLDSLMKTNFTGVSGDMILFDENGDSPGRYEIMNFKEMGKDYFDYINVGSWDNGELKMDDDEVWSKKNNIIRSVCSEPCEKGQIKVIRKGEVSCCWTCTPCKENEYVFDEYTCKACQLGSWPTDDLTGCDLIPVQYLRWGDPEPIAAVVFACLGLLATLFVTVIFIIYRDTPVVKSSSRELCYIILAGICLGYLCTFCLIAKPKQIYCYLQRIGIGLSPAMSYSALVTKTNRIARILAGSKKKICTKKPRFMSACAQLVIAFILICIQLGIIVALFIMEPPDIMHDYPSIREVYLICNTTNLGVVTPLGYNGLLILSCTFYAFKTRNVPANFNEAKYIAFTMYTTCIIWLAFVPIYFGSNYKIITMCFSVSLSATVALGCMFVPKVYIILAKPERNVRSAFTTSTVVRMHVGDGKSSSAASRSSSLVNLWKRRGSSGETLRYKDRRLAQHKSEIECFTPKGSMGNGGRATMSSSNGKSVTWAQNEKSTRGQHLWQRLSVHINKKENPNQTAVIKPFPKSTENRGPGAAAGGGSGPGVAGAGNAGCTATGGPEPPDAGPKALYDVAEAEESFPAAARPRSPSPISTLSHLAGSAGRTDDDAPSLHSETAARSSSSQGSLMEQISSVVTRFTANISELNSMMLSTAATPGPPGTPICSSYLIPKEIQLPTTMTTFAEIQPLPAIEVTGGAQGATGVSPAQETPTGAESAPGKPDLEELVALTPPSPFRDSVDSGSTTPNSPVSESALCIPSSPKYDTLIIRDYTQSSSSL

activity against mGlu2 (mGlu2)	activity against mGlu3 (mGlu3)	activity against mGlu4 (mGlu4)	activity against mGlu7 (mGlu7)	activity against mGlu8 (mGlu8)	Structure (SMILES)	also measured
					CCc1cccc(Nc2ncnc3ccc(F)cc23)c1 [Compound 36]	% Glu max (rat mGlu5; amplitude of response in the presence of 30 μM test compound as a percentage of maximal response (100 μM glutamate), average of n ≥ 3): weak potentiator
					Brc1cccc(Oc2ncnc3ccc(Br)cc23)c1 [Compound 29]	fold reduction of mGlu5 potency, secondary amine to ether (rat mGlu5): more than 50 fold
inactive	inactive	inactive	inactive	inactive	Clc1ccc2ncnc(Nc3cccc(Br)c3)c2c1 [Compound 13]	
					FC(F)(F)c1cccc(Nc2ncnc3ccc(Br)cc23)c1 [Compound 6]	fold less potent at mGlu5 than 5 (rat mGlu5; relative to 3-methylaniline 5): 7 fold
					Clc1ccc2ncnc(Oc3cccc(Br)c3)c2c1 [Compound 26]	fold reduction of mGlu5 potency, secondary amine to ether (rat mGlu5): more than 50 fold
					Brc1cccc(Nc2nccc3ccc(Br)cc23)c1 [Compound 15]	fold reduction of mGlu5 activity relative to 4 (rat mGlu5; relative to 6-bromoquinazoline comparator 4): approximately 25 fold
inactive	inactive	inactive	inactive	inactive	Clc1cccc(Nc2ncnc3ccc(Br)cc23)c1 [Compound 1]	
inactive	inactive	inactive	inactive	inactive	Fc1ccc2ncnc(Nc3cccc(Br)c3)c2c1 [Compound 32]	
					Clc1cccc(Nc2ncnc3ccc(Cl)cc23)c1 [Compound 9]	IC50 (EGFR): 2.7 µM
